Structures are written as SMILES.

Data on 28 molecules can be found in patent US20150246902A1, “SUBSTITUED BENZOFURAN COMPOUNDS AND METHODS OF USE THEREOF FOR THE TREATMENT OF VIRAL DISEASES” (priority 2011, published 2015).

For one assay, the system named is HCV replicon genotype 1b. As to the kind of experiment: microbe, parasite or virus in culture. The conditions noted are these: Hepatitis C virus, 96 h, HCV genotype 1b replicon cells, 96 hours incubation, NS3/4A ELISA readout. It is filed as cell-based.
A further assay relates to HCV replicon genotype 1a. As to the kind of experiment: microbe, parasite or virus in culture. In kind it is cell-based. The conditions noted are these: Hepatitis C virus, 96 h, HCV genotype 1a replicon cells, 96 hours incubation, NS3/4A ELISA readout.

Broadly, the IC50 is the point on the concentration scale where inhibition reaches its midpoint. High values mean lower potency, low ones higher potency. In the case of `CNC(=O)c1c(-c2ccc(F)cc2)oc2cc(N(C)S(C)(=O)=O)c(-c3ccc4[nH]c(=O)n(-c5ccc(F)cc5)c4c3)cc12` [Compound 82], the values for the IC50 in the assay with HCV replicon genotype 1b and in the assay with HCV replicon genotype 1a were 0.0049 µM and 0.023 µM, respectively.

As to `CNC(=O)c1c(-c2ccc(F)cc2)oc2cc(N(C)S(C)(=O)=O)c(-c3cccc4nc(-c5ccc(F)cc5)oc34)cc12` [Compound 86], the concentration for half-maximal inhibition (IC50) in the assay with HCV replicon genotype 1b turned out to be 0.304 µM; in the assay on HCV replicon genotype 1a it was 0.715 µM.

As for `CNC(=O)c1c(-c2ccc(F)cc2)oc2cc(N(C)S(C)(=O)=O)c(-c3ccc4ccn(CCO)c4c3)cc12` [Compound 69], the IC50 stood at 0.0174 µM with HCV replicon genotype 1b and 0.147 µM in the assay on HCV replicon genotype 1a.

Take `CNC(=O)c1c(-c2ccc(F)cc2)oc2cc(N(C)S(C)(=O)=O)c(-c3cc(F)c4[nH]c(=O)n(-c5cc(F)cc(F)c5)c4c3)cc12` [Compound 81]: the figures for the IC50 with HCV replicon genotype 1b and with HCV replicon genotype 1a were 0.0052 µM and 0.0303 µM, respectively.

Consider `CNC(=O)c1c(-c2ccc(F)cc2)oc2cc(N(C)S(C)(=O)=O)c(-c3ccc4ncn(-c5cccnc5)c4c3)cc12` [Compound 16], for which the IC50 in the assay on HCV replicon genotype 1b came out at 0.0046 µM; with HCV replicon genotype 1a it was 0.0372 µM.

Turning to `CNC(=O)c1c(-c2ccc(F)cc2)oc2cc(N(C)S(C)(=O)=O)c(-c3ccc4ncn(-c5cncc(F)c5)c4c3)cc12` [Compound 36], the IC50 in the assay with HCV replicon genotype 1b was determined as 0.0065 µM; in the assay with HCV replicon genotype 1a it was 0.0362 µM.

With `CNC(=O)c1c(-c2ccc(F)cc2)oc2cc(N(C)S(C)(=O)=O)c(-c3ccc4ncc(-c5ccc(F)cc5)n4n3)cc12` [Compound 95], the IC50 in the assay with HCV replicon genotype 1b came to 0.044 µM; in the assay with HCV replicon genotype 1a it was 0.0859 µM.

Turning to `CNC(=O)c1c(-c2ccc(F)cc2)oc2cc(N(C)S(C)(=O)=O)c(-c3ncc4ncn(-c5ccc(C(F)(F)F)cc5)c4n3)cc12` [Compound 41], the IC50 in the assay on HCV replicon genotype 1b came out at 0.0067 µM; in the assay on HCV replicon genotype 1a it was 0.119 µM.

Consider `CNC(=O)c1c(-c2ccc(F)cc2)oc2cc(N(C)S(C)(=O)=O)c(-c3cn4ccnc4cn3)cc12` [Compound 90, 2-(4-fluorophenyl)-5-(imidazo[1,2-a]pyrazin-6-yl)-N-methyl-6-(N-methylmethylsulfonamido)benzofuran-3-carboxamide], for which the IC50 was 0.12 µM in the assay on HCV replicon genotype 1b and 2.18 µM in the assay with HCV replicon genotype 1a.

For `CNC(=O)c1c(-c2ccc(F)cc2)oc2cc(N(C)S(C)(=O)=O)c(-c3ccc4[nH]nc(-c5ccncc5)c4c3)cc12` [Compound 74], the IC50 in the assay on HCV replicon genotype 1b worked out at 0.0054 µM; in the assay on HCV replicon genotype 1a it was 0.0206 µM.

In the case of `CNC(=O)c1c(-c2ccc(F)cc2)oc2cc(N(C)S(C)(=O)=O)c(-c3ccc4oc(-c5ccc(F)cc5)nc4c3)cc12` [Compound 87], the IC50 with HCV replicon genotype 1b came to 0.0108 µM; in the assay on HCV replicon genotype 1a, 0.0515 µM.

Take `CNC(=O)c1c(-c2ccc(F)cc2)oc2cc(N(C)S(C)(=O)=O)c(-c3ccc4c(ccn4C(=O)OC(C)(C)C)c3)cc12` [Compound 104, tert-butyl 5-(2-(4-fluorophenyl)-3-(methylcarbamoyl)-6-(N-methylmethylsulfonamido)benzofuran-5-yl)-1H-indole-1-carboxylate]: the IC50 in the assay on HCV replicon genotype 1b turned out to be 0.0189 µM; with HCV replicon genotype 1a, 0.179 µM.

Consider `CNC(=O)c1c(-c2ccc(F)cc2)oc2cc(N(C)S(C)(=O)=O)c(-c3ccc4[nH]c(-c5ccccc5)cc4c3)cc12` [Compound 103, 2-(4-fluorophenyl)-N-methyl-6-(N-methylmethylsulfonamido)-5-(2-phenyl-1H-indol-5-yl)benzofuran-3-carboxamide], for which the IC50 with HCV replicon genotype 1b is 0.101 µM; in the assay on HCV replicon genotype 1a, 1.1 µM.

In the case of `CNC(=O)c1c(-c2ccc(F)cc2)oc2cc(N(C)S(C)(=O)=O)c(-c3cn4c(-c5ccc(Cl)cc5)cnc4cn3)cc12` [Compound 93], the IC50 stood at 0.0079 µM in the assay on HCV replicon genotype 1b and 0.0479 µM in the assay with HCV replicon genotype 1a.

Regarding `CNC(=O)c1c(-c2ccc(F)cc2)oc2cc(N(C)S(C)(=O)=O)c(-c3ccc4[nH]cc(-c5ccccc5)c4c3)cc12` [Compound 70, 2-(4-fluorophenyl)-N-methyl-6-(N-methylmethylsulfonamido)-5-(3-phenyl-1H-indol-5-yl)benzofuran-3-carboxamide], the IC50 in the assay on HCV replicon genotype 1b was found to be 0.0113 µM; in the assay on HCV replicon genotype 1a, 0.0178 µM.

With `CNC(=O)c1c(-c2ccc(F)cc2)oc2cc(N(C)S(C)(=O)=O)c(-c3cc4c(cn3)ncn4-c3cc(F)cc(F)c3)cc12` [Compound 45], the IC50 was 0.0144 µM with HCV replicon genotype 1b and 0.0948 µM with HCV replicon genotype 1a.

Turning to `CNC(=O)c1c(-c2ccc(F)cc2)oc2cc(N(C)S(C)(=O)=O)c(-c3ccc4ccn(-c5cc(F)cc(F)c5)c4n3)cc12` [Compound 65], the IC50 in the assay on HCV replicon genotype 1b stood at 0.115 µM; with HCV replicon genotype 1a, 1.53 µM.

Turning to `CNC(=O)c1c(-c2ccc(F)cc2)oc2cc(N(C)S(C)(=O)=O)c(-c3ccc4c(ccn4-c4ccc(C(F)(F)F)cc4)c3)cc12` [Compound 56], the IC50 came out at 0.0308 µM with HCV replicon genotype 1b and 0.224 µM in the assay on HCV replicon genotype 1a.

As for `CNC(=O)c1c(-c2ccc(F)cc2)oc2cc(N(C)S(C)(=O)=O)c(-c3ccc4ncn(-c5ccc(F)cc5)c4c3)cc12` [Compound 15], the IC50 with HCV replicon genotype 1b turned out to be 0.0012 µM; in the assay with HCV replicon genotype 1a, 0.0055 µM.

For `CNC(=O)c1c(-c2ccc(F)cc2)oc2cc(N(C)S(C)(=O)=O)c(-c3ccc4ncn(-c5cccc(F)c5)c4c3)cc12` [Compound 14], the IC50 in the assay on HCV replicon genotype 1b was determined as 0.0012 µM; with HCV replicon genotype 1a it was 0.0027 µM.

For the molecule `CNC(=O)c1c(-c2ccc(F)cc2)oc2cc(N(C)S(C)(=O)=O)c(-c3ccc4nnc(-c5ccc(C(F)(F)F)cc5)n4n3)cc12` [Compound 96, 2-(4-fluorophenyl)-N-methyl-6-(N-methylmethylsulfonamido)-5-(3-(4-(trifluoromethyl)phenyl)-[1,2,4]triazolo[4,3-b]pyridazin-6-yl)benzofuran-3-carboxamide], the IC50 in the assay with HCV replicon genotype 1b was 0.0165 µM; with HCV replicon genotype 1a it was 0.0345 µM.

For the molecule `CNC(=O)c1c(-c2ccc(F)cc2)oc2cc(N(C)S(C)(=O)=O)c(-c3ccc4ncn(-c5cccc(Cl)c5)c4c3)cc12` [Compound 12], the IC50 in the assay with HCV replicon genotype 1b was 0.0026 µM; with HCV replicon genotype 1a, 0.0117 µM.

`CNC(=O)c1c(-c2ccc(F)cc2)oc2cc(N(C)S(C)(=O)=O)c(-c3ccc4c(n3)nc(-c3ccccc3)n4C(C)(C)C)cc12` [Compound 100, 5-(1-(tert-butyl)-2-phenyl-1H-imidazo[4,5-b]pyridin-5-yl)-2-(4-fluorophenyl)-N-methyl-6-(N-methylmethylsulfonamido)benzofuran-3-carboxamide]: the IC50 in the assay on HCV replicon genotype 1b was 0.073 µM; in the assay on HCV replicon genotype 1a it was 0.297 µM.

As for `CNC(=O)c1c(-c2ccc(F)cc2)oc2cc(N(C)S(C)(=O)=O)c(-c3ccc4cnn(-c5ccc(C(F)(F)F)cc5)c4c3)cc12` [Compound 107], the IC50 with HCV replicon genotype 1b was 0.0061 µM; with HCV replicon genotype 1a, 0.0083 µM.

Turning to `CNC(=O)c1c(-c2ccc(F)cc2)oc2cc(N(C)S(C)(=O)=O)c(-c3ccc4ccn(-c5cccnc5)c4c3)cc12` [Compound 52], the half-inhibitory concentration (IC50) stood at 0.0071 µM in the assay on HCV replicon genotype 1b and 0.0429 µM with HCV replicon genotype 1a.

As to `CNC(=O)c1c(-c2ccc(F)cc2)oc2cc(N(C)S(C)(=O)=O)c(-c3ccc4ncn(-c5ccc(F)cn5)c4c3)cc12` [Compound 35], the figures for the IC50 with HCV replicon genotype 1b and in the assay with HCV replicon genotype 1a were 0.0059 µM and 0.0352 µM, respectively.

Regarding `CNC(=O)c1c(-c2ccc(F)cc2)oc2cc(N(C)S(C)(=O)=O)c(-c3cccc4c3ncn4-c3ccccc3)cc12` [Compound 38], the IC50 in the assay on HCV replicon genotype 1b worked out at 0.155 µM; in the assay on HCV replicon genotype 1a, 0.629 µM.

With `CNC(=O)c1c(-c2ccc(F)cc2)oc2cc(N(C)S(C)(=O)=O)c(-c3ccc4[nH]nc(-c5ccc(Cl)cc5)c4c3)cc12` [Compound 76], the IC50 in the assay with HCV replicon genotype 1b worked out at 0.0058 µM; with HCV replicon genotype 1a, 0.0068 µM.
